Assay results published in US10988459B2 (priority 2015, dated 2021).

target: human RIP1 kinase domain (2-375) (Homo sapiens (Human), UniProt Q13546); assay: biochemical; type: biochemical; settings: Table 1; apparent Ki (Morrison tight-binding fit); 50 nM RIP1 kinase domain, 50 uM ATP, 2 hours incubation; read-out: RIP1 Ki
Protocol: Example 794: RIP1 Kinase Inhibition Assays (Biochemical Assay)
The compounds of the present invention were tested for their capacity to inhibit RIP1K activity as described below.
The ability of the receptor interacting protein kinase (RIPK1) to catalyze the hydrolysis of adenosine-5′-triphosphate (ATP) is monitored using the Transcreener ADP (adenosine-5′-diphosphate) assay (BellBrook Labs). Purified human RIP1 kinase domain (2-375) (50 nM) derived from a baculovirus-infected insect cell expression system is incubated with test compounds for 2 hours in 50 mM Hepes buffer (pH 7.5) containing 30 mM MgCl2, 1 mM dithiothreitol, 50 uM ATP, 0.002% Brij-35, and 0.5% dimethyl sulfoxide (DMSO). […] The tracer bound to the antibody is displaced by the ADP generated during the RIP1K reaction, which causes a decrease in fluorescence polarization that is measured by laser excitation at 633 nm with a FP microplate reader M1000. Fractional activity was plotted against test article concentration. Using Genedata Screener software (Genedata; Basel, Switzerland), the data were fit to the tight-binding apparent inhibition constant (Ki^app) Morrison equation [Williams, J. W. and Morrison, J. F. (1979) The kinetics of reversible tight-binding inhibition. Methods Enzymol 63: 437-67]. The following equation was used to calculate fractional activity and Ki^app:
[formula] where [E]T and [I]T are the total concentrations of active enzyme and test article, respectively.
“Method” in the first column of each table refers to the synthetic method(s) used to prepare each compound as shown in the Examples above. In certain examples, chiral column retention times (min) are provided for certain stereoisomers.

Chain of human RIP1 kinase domain (2-375) (Q13546 2-375): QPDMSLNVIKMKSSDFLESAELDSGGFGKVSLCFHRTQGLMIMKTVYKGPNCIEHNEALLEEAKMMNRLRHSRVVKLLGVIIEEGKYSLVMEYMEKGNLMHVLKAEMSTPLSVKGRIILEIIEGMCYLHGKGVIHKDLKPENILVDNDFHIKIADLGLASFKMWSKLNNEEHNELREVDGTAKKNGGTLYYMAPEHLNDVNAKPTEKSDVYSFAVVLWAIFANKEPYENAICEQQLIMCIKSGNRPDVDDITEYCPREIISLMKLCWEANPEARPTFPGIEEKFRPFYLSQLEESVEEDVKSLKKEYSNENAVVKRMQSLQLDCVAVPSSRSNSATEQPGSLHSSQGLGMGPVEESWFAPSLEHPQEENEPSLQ

`CN1C(=O)[C@@H](NC(=O)c2nnc3ccc(C(F)(F)F)cn23)COc2ccccc21` [Example 82, (S)-N-(5-methyl-4-oxo-2,3,4,5-tetrahydrobenzo[b][1,4]oxazepin-3-yl)-6-(trifluoromethyl)-[1,2,4]triazolo[4,3-a]pyridine-3-carboxamide] and `CN1C(=O)[C@@H](NC(=O)c2cc3n(n2)CCCN(c2ccccc2)C3)COc2ccccc21` [Example 6, N-[(3S)-5-methyl-4-oxo-2,3-dihydro-1,5-benzoxazepin-3-yl]-5-phenyl-4,6,7,8-tetrahydro pyrazolo[1,5-a][1,4]diazepine-2-carboxamide] are within 1.5-fold of each other in Ki: 393 nM for the first, 375 nM for the second.

Compared with `CN1C(=O)[C@@H](NC(=O)c2nnc(Cc3ccccc3)[nH]2)CCn2nccc21` [Example 27, (S)-5-benzyl-N-(4-methyl-5-oxo-5,6,7,8-tetrahydro-4H-pyrazolo [1,5-a][1,3]diazepin-6-yl)-4H-1,2,4-triazole-3-carboxamide], `CN1C(=O)[C@@H](NC(=O)c2n[nH]c3c2CCCCC3)COc2ccccc21` [Example 44, (S)-N-(5-methyl-4-oxo-2,3,4,5-tetrahydrobenzo[b][1,4]oxazepin-3-yl)-1,4,5,6,7,8-hexahydrocyclohepta[c]pyrazole-3-carboxamide] is 66-fold higher in Ki: 45.4 nM for the first, 3000 nM for the second. The first binds more tightly here.

For `O=C(N[C@H]1COc2ccccc2NC1=O)c1n[nH]c2c1C1CC1CC2` (stereo partly drawn) [Example 54, N-((S)-4-oxo-2,3,4,5-tetrahydrobenzo[b][1,4]oxazepin-3-yl)-3,4,5,5a,6,6a-hexahydrocyclopropa[e]indazole-1-carboxamide], the Ki was 7700 nM.

same assay, conditions: Table 5; apparent Ki (Morrison tight-binding fit); 50 nM RIP1 kinase domain, 50 uM ATP, 2 hours incubation; read-out: Ki

With `Cc1nccn1Cc1cc2n(n1)CCC(NC(=O)c1ncn(Cc3ccccc3)n1)C(=O)N2C` (racemic) [Example 706, 1-benzyl-N-[4-methyl-2-[(2-methylimidazol-1-yl)methyl]-5-oxo-7,8-dihydro-6H-pyrazolo[1,5-a][1,3]diazepin-6-yl]-1,2,4-triazole-3-carboxamide] the Ki was 413 nM.

same assay, conditions: human RIP1 kinase domain (2-375), 50 uM ATP, 2 hours incubation, Transcreener ADP assay; read-out: RIP1 Ki

First: O=C(NC1CCn2ncc3c2N(CCO3)C1=O)c1nnc(Cc2ccccc2)[nH]1 (centres unmarked) [Example 199, 5-benzyl-N-(6-oxo-4,5,6,7,8,9-hexahydro-3-oxa-1,5a,9a-triazabenzo[cd]azulen-7-yl)-4H-1,2,4-triazole-3-carboxamide]
Second: CCC1(C)OCc2nnc(C(=O)N[C@H]3COc4ccccc4N(C)C3=O)cc21 (stereo partly drawn) [Example 201, 5-ethyl-5-methyl-N—((S)-5-methyl-4-oxo-2,3,4,5-tetrahydrobenzo[b][1,4]oxazepin-3-yl)-5,7-dihydrofuro[3,4-c]pyridazine-3-carboxamide]
The Ki of the first is 1.9-fold higher: 766 nM for the first, 411 nM for the second. The second binds more tightly here.

Compared with `CC(C)c1ccc2[nH]nc(C(=O)N[C@H]3COc4ccccc4N(C)C3=O)c2n1` [Example 139, 5-isopropyl-N-[(3S)-5-methyl-4-oxo-2,3-dihydro-1,5-benzoxazepin-3-yl]-1H-pyrazolo[4,3-b]pyridine-3-carboxamide], `CCC1Cc2c(C(=O)N[C@H]3COc4ccccc4N(C)C3=O)n[nH]c2CO1` (stereo partly drawn) [Example 186, 5-ethyl-N—((S)-5-methyl-4-oxo-2,3,4,5-tetrahydrobenzo[b][1,4]oxazepin-3-yl)-1,4,5,7-tetrahydropyrano[3,4-c]pyrazole-3-carboxamide] is 4.6-fold higher in Ki: 29.2 nM for the first, 135 nM for the second. The first binds more tightly here.

same assay, conditions: human RIP1 kinase domain (2-375), Transcreener ADP assay, 50 uM ATP, 2 hours incubation; read-out: RIP1 Ki

First: CN1C(=O)[C@@H](NC(=O)c2ncn(Cc3ccccc3)n2)CCn2nc(C3CC3(F)F)cc21 (stereo partly drawn) [Example 283, 1-benzyl-N-((6S)-2-(2,2-difluorocyclopropyl)-4-methyl-5-oxo-5,6,7,8-tetrahydro-4H-pyrazolo[1,5-a][1,3]diazepin-6-yl)-1H-1,2,4-triazole-3-carboxamide]
Second: CN1C(=O)[C@@H](NC(=O)c2ncn(Cc3ccc(F)c(F)c3)n2)CCn2nc([C@H]3CC3(F)F)cc21 [Example 313, 1-(3,4-difluorobenzyl)-N—((S)-2-((R)-2,2-difluorocyclopropyl)-4-methyl-5-oxo-5,6,7,8-tetrahydro-4H-pyrazolo[1,5-a][1,3]diazepin-6-yl)-1H-1,2,4-triazole-3-carboxamide]
The Ki of the first is 82-fold lower: 72.2 nM for the first, 5940 nM for the second.

First: CN1C(=O)C(NC(=O)c2ncn(CCC(F)(F)F)n2)CCn2nc(C3CC3)cc21 (centres unmarked) [Example 258, N-(2-cyclopropyl-4-methyl-5-oxo-5,6,7,8-tetrahydro-4H-pyrazolo[1,5-a][1,3]diazepin-6-yl)-1-(3,3,3-trifluoropropyl)-1H-1,2,4-triazole-3-carboxamide]
Second: Cc1ccc(Cn2cnc(C(=O)NC3CCn4nc(C5CC5)cc4N(C)C3=O)n2)cn1 (centres unmarked) [Example 278, N-(2-cyclopropyl-4-methyl-5-oxo-5,6,7,8-tetrahydro-4H-pyrazolo[1,5-a][1,3]diazepin-6-yl)-1-((6-methylpyridin-3-yl)methyl)-1H-1,2,4-triazole-3-carboxamide]
The Ki of the first is 3.1-fold higher: 1600 nM for the first, 516 nM for the second. The second binds more tightly here.

For `Cc1cc2n(n1)CC[C@@H](NC(=O)c1nnc(Cc3ccccc3)[nH]1)C(=O)N2C` [Example 241, (R)-5-benzyl-N-(2,4-dimethyl-5-oxo-5,6,7,8-tetrahydro-4H-pyrazolo[1,5-a][1,3]diazepin-6-yl)-4H-1,2,4-triazole-3-carboxamide], the Ki was 8900 nM.

same assay, conditions: tight-binding apparent inhibition constant; human RIP1 kinase domain (2-375) 50 nM, 50 uM ATP, 2 hours; read-out: Ki

First: CN1C(=O)[C@@H](NC(=O)c2nc3n(n2)[C@@H](c2ccccc2F)CC3)COc2ccccc21 [Example 468, (R)-5-(2-fluorophenyl)-N—((S)-5-methyl-4-oxo-2,3,4,5-tetrahydrobenzo[b][1,4]oxazepin-3-yl)-6,7-dihydro-5H-pyrrolo[1,2-b][1,2,4]triazole-2-carboxamide]
Second: CN1C(=O)[C@@H](NC(=O)c2nc3n(n2)[C@@H](c2cnn(C)c2)CCC3)COc2ccccc21 (racemic) [Example 407, (R)-5-(1-methyl-1H-pyrazol-4-yl)-N—((S)-5-methyl-4-oxo-2,3,4,5-tetrahydrobenzo[b][1,4]oxazepin-3-yl)-5,6,7,8-tetrahydro-[1,2,4]triazolo[1,5-a]pyridine-2-carboxamide]
The Ki of the first is 14-fold lower: 4 nM for the first, 54.9 nM for the second. The first binds more tightly here.

Compared with `CC[C@H]1C[C@@H](Cn2cnc(C(=O)N[C@H]3CCn4nccc4N(C)C3=O)n2)C1` [Example 502, N—((S)-4-methyl-5-oxo-5,6,7,8-tetrahydro-4H-pyrazolo[1,5-a][1,3]diazepin-6-yl)-1-(((1R,3R)-3-ethylcyclobutyl)methyl)-1H-1,2,4-triazole-3-carboxamide], `Cc1cc2n(n1)CC[C@H](NC(=O)c1ncn(Cc3ccccc3C)n1)C(=O)N2C` [Example 591, 1-(o-tolylmethyl)-N-(6S)-2,4-dimethyl-5-oxo-7,8-dihydro-6H-pyrazolo[1,5-a][1,3]diazepin-6-yl-1,2,4-triazole-3-carboxamide] is 1.6-fold lower in Ki: 27 nM for the first, 17 nM for the second.

Going from `CN1C(=O)[C@@H](NC(=O)c2nnc(Cc3ccccc3)[nH]2)CCn2nc([C@H]3CC3(F)F)cc21` (racemic) [Example 672, 5-benzyl-N-[rac-(6S)-4-methyl-5-oxo-2-[rac-(1R)-2,2-difluorocyclopropyl]-7,8-dihydro-6H-pyrazolo[1,5-a] [1,3]diazepin-6-yl]-4H-1,2,4-triazole-3-carboxamide] to `Cc1cc2n(n1)CC[C@H](NC(=O)c1nnn(Cc3ccccc3)n1)C(=O)N2C` [Example 541, 2-benzyl-N-(6S)-2,4-dimethyl-5-oxo-7,8-dihydro-6H-pyrazolo[1,5-a][1,3]diazepin-6-yltetrazole-5-carboxamide], the Ki falls from 56 nM to 5 nM (11-fold).

First: Cc1cc2n(n1)CC[C@H](NC(=O)c1nc3n(n1)CCC3c1ccccc1)C(=O)N2C (stereo partly drawn) [Example 574, 7-phenyl-N-[(6S)-2,4-dimethyl-5-oxo-7,8-dihydro-6H-pyrazolo[1,5-a][1,3]diazepin-6-yl]-6,7-dihydro-5H-pyrrolo[1,2-b][1,2,4]triazole-2-carboxamide]
Second: Cc1cc2n(n1)CC[C@H](NC(=O)c1nc3n(n1)[C@H](c1ccccc1)CC3)C(=O)N2C (single isomer, unassigned) [Example 610]
The Ki of the first is 16-fold lower: 58 nM for the first, 920 nM for the second. The first binds more tightly here.

`Cc1cc2n(n1)CC[C@H](NC(=O)c1nc3n(n1)CCN3c1c(F)cccc1F)C(=O)N2C` [Example 649, 4-(2,6-difluorophenyl)-N-[(6S)-2,4-dimethyl-5-oxo-7,8-dihydro-6H-pyrazolo[1,5-a][1,3]diazepin-6-yl]-5,6-dihydroimidazo[1,2-b][1,2,4]triazole-2-carboxamide] and `Cc1cc2n(n1)CC[C@H](NC(=O)c1ncc3c(n1)C1(CCCC1)OC3)C(=O)N2C` [Example 552, N-[(6S)-2,4-dimethyl-5-oxo-7,8-dihydro-6H-pyrazolo[1,5-a][1,3]diazepin-6-yl]spiro[5H-furo[3,4-d]pyrimidine-7,1′-cyclopentane]-2-carboxamide] are within 1.5-fold of each other in Ki: 140 nM for the first, 110 nM for the second.

Compound `CCC[C@@H]1CCCc2nc(C(=O)N[C@H]3CCc4cc(F)cc(F)c4NC3=O)nn21` (single isomer, unassigned) [Example 437] has a Ki of 8.43 nM.
